Target: T1, OxsB + OxsA (OxsA/OxsB) (Priestia megaterium, UniProt O24770)
T1 sequence (O24770 1-744): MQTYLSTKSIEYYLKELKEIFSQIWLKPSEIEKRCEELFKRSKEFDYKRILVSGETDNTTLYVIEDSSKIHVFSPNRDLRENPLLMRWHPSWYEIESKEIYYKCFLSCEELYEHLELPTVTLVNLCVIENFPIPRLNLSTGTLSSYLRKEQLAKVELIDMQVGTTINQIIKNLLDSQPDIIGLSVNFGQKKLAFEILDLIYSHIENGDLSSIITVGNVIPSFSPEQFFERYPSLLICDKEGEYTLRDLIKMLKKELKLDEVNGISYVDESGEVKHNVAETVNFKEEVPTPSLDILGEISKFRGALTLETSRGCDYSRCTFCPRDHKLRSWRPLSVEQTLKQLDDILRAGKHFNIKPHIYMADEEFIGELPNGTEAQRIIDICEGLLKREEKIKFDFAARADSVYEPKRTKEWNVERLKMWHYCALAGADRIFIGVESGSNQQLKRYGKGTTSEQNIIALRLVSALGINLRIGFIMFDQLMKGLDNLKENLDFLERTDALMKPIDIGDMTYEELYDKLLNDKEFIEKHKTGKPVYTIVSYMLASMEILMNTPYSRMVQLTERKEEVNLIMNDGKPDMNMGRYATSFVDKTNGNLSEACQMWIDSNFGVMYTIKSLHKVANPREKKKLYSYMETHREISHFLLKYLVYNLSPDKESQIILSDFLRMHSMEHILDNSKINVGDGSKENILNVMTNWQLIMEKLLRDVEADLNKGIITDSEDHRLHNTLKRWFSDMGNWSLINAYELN
Experiment: HPLC product detection, MS and NMR
Format: biochemical
Details: AdoMet, HO-Cbl, MgCl2, DTT, NADPH / methyl viologen

In the case of `Nc1ncnc2c1ncn2[C@H]1C[C@H](O)[C@@H](COP(=O)(O)O)O1` [dAMP], the “HPLC product detection, MS and NMR” value is reported as “identify dAMP, dADP and dATP as OXT-A precursors”.

From PMC5398914 (Nature, 2017)
